Our source for the logP values is the SangsterLogP compilation.

The nature of the series: method code SF, from PMID: 3778562.
In turn, `CCCCCCCCCCCCO[C@H]1Cc2c(O)cc(O)cc2O[C@@H]1c1ccc(O)c(O)c1` had a log partition coefficient (logP) of 6.79.
Compound `O=c1cc(-c2ccc(O)c(O)c2)oc2cccc(O)c12` gave a lipophilicity (logP) of 3.31.
To `COc1ccc([C@@H]2CC(=O)c3c(O)cc(O)cc3O2)cc1O` belongs 2.6.
To `CCCCCCCCCCCCCCCCO[C@H]1Cc2c(O)cc(O)cc2O[C@@H]1c1ccc(O)c(O)c1` belongs 8.87; to `C[C@@H]1O[C@@H](Oc2c(-c3ccc(O)c(O)c3)oc3cc(O)cc(O)c3c2=O)[C@H](O)[C@H](O)[C@H]1O`, 1.78.
The value for `O=C1C[C@@H](c2ccc(O)c(O)c2)Oc2cc(O)ccc21` was 1.94; that for `O=c1c(O)c(-c2ccc(O)cc2)oc2cc(O)ccc12` was 3.02; that for `O=c1cc(-c2ccc(O)c(O)c2)oc2cc(O)ccc12` was 1.94.
In the case of `O=c1c(O)c(-c2ccc(O)cc2O)oc2cc(O)cc(O)c12`, the logP amounted to 2.61.
For `C[C@@H]1O[C@@H](O[C@H]2[C@H](Oc3cc(O)c4c(c3)O[C@H](c3ccc(O)cc3)CC4=O)O[C@H](CO)[C@@H](O)[C@@H]2O)[C@H](O)[C@H](O)[C@H]1O`, the logP was -0.44.
`N#CCCO[C@H]1Cc2c(O)cc(O)cc2O[C@@H]1c1ccc(O)c(O)c1` returned a lipophilicity (logP) of 0.96.
The value for `CCCC(=O)O[C@H]1Cc2c(O)cc(O)cc2O[C@@H]1c1ccc(O)c(O)c1` was 2.47; that for `CCCCCCCO[C@H]1Cc2c(O)cc(O)cc2O[C@@H]1c1ccc(O)c(O)c1` was 4.2.
`O=C(O[C@H]1Cc2c(O)cc(O)cc2O[C@@H]1c1ccc(O)c(O)c1)c1ccc(F)cc1` had a logP of 3.64.
To `O=C(O[C@H]1Cc2c(O)cc(O)cc2O[C@@H]1c1ccc(O)c(O)c1)c1ccccc1` belongs 3.44.
To `CO[C@H]1Cc2c(O)cc(O)cc2O[C@@H]1c1ccc(O)c(O)c1` belongs 1; to `O=c1c(O)c(-c2cccc(O)c2)oc2cc(O)ccc12`, 2.51; to `Oc1cc(O)c2c(c1)O[C@@H](c1ccc(O)c(O)c1)C(OCO[C@@H]1Cc3c(O)cc(O)cc3O[C@H]1c1ccc(O)c(O)c1)C2` (some centres not stated), 2.15.
To `CC(=O)Oc1ccccc1C(=O)OC1Cc2c(O)cc(O)cc2OC1c1ccc(O)c(O)c1` (configuration not stated) belongs 2.87.
The compound `O=C(OC1Cc2c(O)cc(O)cc2OC1c1ccc(O)c(O)c1)c1ccc(O)c(O)c1` (configuration not stated) returned a logP of 2.45.
The value for `NCCCOC1Cc2c(O)cc(O)cc2OC1c1ccc(O)c(O)c1` (configuration not stated) was 0.52; that for `O=c1cc(-c2ccc(O)cc2)oc2cc(O)cc(O)c12` was 3.02; that for `CCCCO[C@H]1Cc2c(O)cc(O)cc2O[C@@H]1c1ccc(O)c(O)c1` was 2.64.
Take `O=C(O)CCC(=O)O[C@H]1Cc2c(O)cc(O)cc2O[C@@H]1c1ccc(O)c(O)c1`: the lipophilicity (logP) was 1.41.
To `O=C1C[C@@H](c2cccc(O)c2)Oc2cc(O)cc(O)c21` belongs 2.51.
To `CCCCCCCCCCCCCCCC(=O)O[C@H]1Cc2c(O)cc(O)cc2O[C@@H]1c1ccc(O)c(O)c1` belongs 8.7; to `CCCCCCCCCC(=O)O[C@H]1Cc2c(O)cc(O)cc2O[C@@H]1c1ccc(O)c(O)c1`, 5.58; to `COc1ccc(-c2cc(=O)c3c(O)cc(O)cc3o2)cc1O`, 3.1.
To `CCCCCCCCCCCCCCCCCCO[C@H]1Cc2c(O)cc(O)cc2O[C@@H]1c1ccc(O)c(O)c1` belongs 9.91; to `Oc1cc(O)c2c(c1)OC(c1ccc(O)c(O)c1)C(O)C2O` (configuration not stated), 0.95.
On to `O=C(Cc1ccccc1)O[C@H]1Cc2c(O)cc(O)cc2O[C@@H]1c1ccc(O)c(O)c1`, for which the logP was 3.09.
`O=c1c(O)c(-c2ccc(O)cc2)oc2cc(O)cc(O)c12` displayed a logP of 3.39.
The value for `COc1ccc(-c2oc3ccccc3c(=O)c2O)cc1OC` was 4.17; that for `O=C1C[C@@H](c2ccc(O)c(O)c2)Oc2cc(O)cc(O)c21` was 2.02; that for `COc1ccc(-c2oc3cc(O)cc(O)c3c(=O)c2O)cc1` was 3.97.
To `Oc1cc(O)c2c(c1)OC(c1ccc(O)c(O)c1)C(OCCCc1ccccc1)C2` (configuration not stated) belongs 3.78; to `COc1ccc(-c2cc(=O)c3c(O)cc(O[C@@H]4O[C@H](CO[C@@H]5O[C@@H](C)[C@H](O)[C@@H](O)[C@H]5O)[C@@H](O)[C@H](O)[C@H]4O)cc3o2)cc1O`, 0.14.
To `O=C1C[C@@H](c2ccc(O)cc2)Oc2cc(O[C@H]3O[C@@H](CO)[C@H](O)[C@@H](O)[C@@H]3O)cc(O)c21` belongs -0.44; to `COc1cc(OC)c2c(c1)O[C@H](c1ccc(OC)c(OC)c1)[C@@H](O)C2`, 3.1.
In turn, `CCCO[C@H]1Cc2c(O)cc(O)cc2O[C@@H]1c1ccc(O)c(O)c1` came in with a logP of 2.12.
In the case of `Cc1cc(C)c2c(c1)O[C@H](c1ccc(C)c(C)c1)[C@@H](O)C2`, the logP was found to be 3.1.
In the case of `O=C1CC(c2ccc(O)cc2)Oc2cc(O)cc(O)c21` (stereo in doubt), the logP is 2.52.
The value for `O=C1C[C@@H](c2ccc(O)c(O)c2)Oc2cccc(O)c21` was 2.81; that for `O=C(Nc1ccccc1)OC1Cc2c(O)cc(O)cc2OC1c1ccc(O)c(O)c1` (configuration not stated) was 3.05; that for `O=c1c(O)c(-c2ccc(O)c(O)c2)oc2cc(O)ccc12` was 2.53.
`COc1cc(OC)c2c(c1)OC(c1ccc(OC)c(OC)c1)C(OC)C2` (configuration not stated) returned a lipophilicity (logP) of 3.68.
With `O=c1cc(-c2ccccc2)oc2cc(O)cc(O)c12`, the log partition coefficient (logP) was determined as 3.52.

As a reminder, the logP is a log measure of how a compound divides between an organic and an aqueous phase. A low value points to a more hydrophilic compound.
